Experimental data taken from patent US20090209585A1, “CYCLOALKENE DERIVATIVES, PROCESS FOR PRODUCTION OF THE DERIVATIVES, AND USE OF THE SAME” (priority 2006, published 2009).
Converted amounts (≈) assume the structure as drawn. Where a name gives a salt, the structure may show the parent alone.

Columns and labels:
[1] = test system: Female BALB/c mice inoculated with LPS; experiment: Evaluation of efficacy in mouse endotoxin shock model; assay type: in vivo; details: 10 mg/kg intravenously in saline, 1 hr before LPS 5 mg/kg intraperitoneally; survival at 5 days from LPS inoculation; 7 mice per group
Procedure: Female BALB/c mice (6-week-old) were purchased and, after preliminary rearing for 1 week, divided into groups (7 per group). The compound of Example 3 was dissolved in saline immediately before administration, and intravenously administered at 10 mg/kg. For the control group, a solvent was administered in the same manner. One hour later, LPS (5 mg/kg) was intraperitoneally inoculated, and the survival of the mice was observed. The efficacy was evaluated based on the survival rate at 5 days from LPS inoculation.

[2] = physchem; details: saline, saline or isotonic
[3] = Solubility according to Japanese Pharmacopoeia general notices, analyzed by HPLC; assay type: physicochemical; details: thermodynamic from solid, treated according to Japanese Pharmacopoeia
Procedure: The compounds of Examples 9, 12 and 15 were measured and placed in a glass container by 1 mg each, saline was added in small portions, and the mixture was stirred. The solubility was visually observed. In addition, as a conventional compound having a nitric oxide (NO) production inhibitory effect and an inflammatory cytokine production inhibitory effect, ethyl 6-[N-(2-chloro-4-fluorophenyl)sulfamoyl]cyclohex-1-ene-1-carboxylate (indicated as conventional compound in Table 1) was treated according to the Japanese Pharmacopoeia, general notices, and analyzed by HPLC to determined the solubility.

solubility [2] | Compound | also measured
 | CCOC(=O)C1=CCCCC1S(=O)(=O)N(COC(=O)OCCCC(=O)O)c1ccc(F)cc1Cl (stereo not shown) [Example 3, sodium 4-({[((2-chloro-4-fluorophenyl){[2-(ethoxycarbonyl)cyclohex-2-en-1-yl]sulfonyl}amino)methoxy]carbonyl}oxy)butanoate] | number of survived mice (N = 7) [1]: 6
≥ 1 mg/mL | CCOC(=O)C1=CCCCC1S(=O)(=O)N(Cc1cc(C)c(OC(=O)[C@@H]2CCCN2)c(C)c1)c1ccc(F)cc1Cl (stereo partly drawn) [Example 23, 4-[((2-chloro-4-fluorophenyl){[2-(ethoxycarbonyl)cyclohex-2-en-1-yl]sulfonyl}amino)methyl]-2,6-dimethylphenyl L-prolinate] | 
 | CCOC(=O)C1=CCCCC1S(=O)(=O)Nc1ccc(F)cc1Cl (stereo not shown) [Conventional compound, ethyl 6-[N-(2-chloro-4-fluorophenyl)sulfamoyl]cyclohex-1-ene-1-carboxylate] | solubility [3]: 0.01 mg/mL (≈ 27.6 µM)
≥ 1 mg/mL | CCOC(=O)C1=CCCCC1S(=O)(=O)N(Cc1cc(C)c(OC(=O)CNC)c(C)c1)c1ccc(F)cc1Cl (stereo not shown) [Example 21, ethyl 6-[((2-chloro-4-fluorophenyl){3,5-dimethyl-4-[(N-methylglycyl)oxy]benzyl}amino)sulfonyl]cyclohex-1-ene-1-carboxylate hydrochloride] | 
